Experimental data reported in publication PMC11344848, “Proximity-driven site-specific cyclization of phage-displayed peptides” (Nature Communications, 2024).
Positions of bridges follow the written chain, without caps; N, C: chain ends. No end group written: not given here.

Legend:
Ph1 phage particles = test: Phage infectivity studies (titre of infective phage after linker treatment); conditions: Figure 4d; phage treated with DTT (1 mM) only
Experimental: CCA: Ph1 phage particles (~ 10^11) were reduced with DTT (1 mM) for 30 min at 37 °C in a total volume of 95 µL. Linker CCA (final concentration = 150 µM) in DMSO (5% total volume) was added and the reaction was left to incubate for 2 h at room temperature. DBX: Ph1 phage particles (~ 10^11) were reduced with TCEP (1 mM) for 30 min at 37 °C in a total volume of 95 µL. Reduced Ph1 phage particles were buffer exchanged into NH4HCO3 (20 mM, pH 8.0) using Zeba™ Spin Desalting Columns (7 K MWCO, 0.5 mL) following the manufacturer’s instructions. Linker DBX (final concentration = 150 µM) in DMSO (5% total volume) was added and the reaction was left to incubate for 2 h at room temperature.
For each sample, two 100-fold dilutions in 2xTY were prepared. An aliquot (10 μL) of the 10^−4 dilution sample was added to TG1 E. coli (990 µL) grown to OD600nm = 0.6. After 1 h of infection at 37 °C and 150 RPM, four further 10-fold dilutions in 2xTY were prepared (10^−7 – 10^−10). Aliquots (100 µL) of dilution samples 10^−7 – 10^−10 were plated O/N on 2xTYAG agar at 37 °C. The next day, phage titres were calculated according to the equation.
Cfu/mL = [No. of colonies] x [Dilution factor] x [1/Volume plated (mL)].

streptavidin [1] = molecular target: T1, streptavidin (Streptomyces avidinii, UniProt P22629); test: Streptavidin-binding phage ELISA; conditions: for Phage ELISA signal, Linear: Figure 6a, peptide linear (reduced using DTT), bound phage detected with anti-M13-HRP; for Phage ELISA signal, Linear / Phage ELISA signal, Lin: phage clone; for Phage ELISA signal, Lin: Figure 6b, peptide linear; for Binding to streptavidin in phage ELISA (in words): phage-displayed peptide, form as stated in the sentence (CCA replaced with linkers 1, 2, 3 or 4; CCA-cyclized negative control)
Experimental: All incubation steps were performed at room temperature unless otherwise stated. A Pierce™ streptavidin-coated 96 well plate (Thermo Fisher Scientific) was treated O/N at 4 °C with biotinylated antigen (50 µL/well, 10 ng/µL in assay buffer). The next day, the plate was washed x3 with PBS to remove unbound antigen and incubated for 1 h with blocking buffer (300 µL/ well). At the same time, phage cultures (100 µL, ~ 10^10) were incubated for 1 h with blocking buffer (400 µL).
The 96-well plate was washed x3 with PBS and subsequently incubated with blocked phage (50 µL/ well) for 1 h. The plate was washed x3 with PBST, and bound phage was detected via the addition of anti-M13 HRP conjugated secondary antibody (50 µL/ well, 1/5000 dilution in blocking buffer, Abcam). After 1 h, the plate was washed x3 with PBST. HRP was developed using TMB substrate (50 µL/ well, Thermo Fisher Scientific), quenched after 5 min with H2SO4 (50 µL/ well, 0.5 M) and visualised at λ = […] using an EnVision Microplate Reader (PerkinElmer). Data was processed using SoftMax® Pro Software v7. […]
Biotinylated antigen = none required, assay buffer = N/A, blocking buffer = 3% (w/v) mPBS.

streptavidin [2] = molecular target: T1, streptavidin; test: Sequencing of clones enriched after three rounds of selection of library L1-CCA against streptavidin; conditions: clones sequenced after three rounds of selection against streptavidin
Experimental: Streptavidin-coated magnetic Dynabeads™ (50 μL/ selection, prewashed with 1 mL PBS) were blocked with 3% (w/v) mPBS (1 mL) for 1 h on a rotary mixer at room temperature and 20 RPM. L1 phage particles (~ 10^11) were reduced with DTT (1 mM) for 30 min at 37 °C in PBS (total reaction volume = 100 µL). The beads were pelleted on a magnetic stand and reduced L1 phage particles (~ 10^11) were added. After 1 h on a rotary mixer at room temperature and 20 RPM, the beads were pelleted and the supernatant was transferred to a fresh Eppendorf. Linker CCA (final concentration = 150 µM) in DMSO (5% total volume) was added and the reaction was left to incubate for 2 h at room temperature.
L1-CCA: Output phage from the negative streptavidin selection above.
L1-Red/ L1-CCA input phage (~ 10^11) and streptavidin-coated magnetic Dynabeads™ (50 μL/ selection, prewashed with 1 mL PBS) were incubated with 3% (w/v) mPBS (volume made up to 500 μL for phage, 1 mL for beads) for 1 h on a rotary mixer at room temperature and 20 RPM. The beads were pelleted on a magnetic stand and resuspended in 3% (w/v) mPBS (100 μL). An aliquot of the blocked beads (50 μL) was added to the blocked phage. The mixture was incubated for 1 h on a rotary mixer at room temperature and 20 RPM.
Using a Kingfisher mL apparatus, the beads were washed x5 with PBST (1 mL) and eluted into trypsin solution (10 µg/ mL trypsin in 0.1 M pH 7.0 sodium phosphate buffer, 200 µL). Trypsin digest was performed for 30 min at 37 °C and 600 RPM, the beads were pelleted and the supernatant was added to OD600nm = 0.6 TG1 E. coli (800 µL). After 1 h at 37 °C and 250 RPM, output titres were performed and the remaining cells were plated O/N on a 2xTYAG bioassay plate at 37 °C. The next day, the cells were harvested from the plate, as described below.

streptavidin [3] = molecular target: T1, streptavidin; test: SPR binding of synthetic peptides to immobilised streptavidin (Biacore 8K); conditions: synthetic peptide as disulphide-bonded entity, 25 °C, 4.1-9000 nM, HBS-EP+ pH 7.4
Experimental: The affinity of peptides Str1 and Str1-CCA to streptavidin was measured using the Biacore 8 K (GE Healthcare) at 25 °C.
For cyclization, peptide Str1 (5 mg, GL Biochem) was dissolved in PBS (20 mL) and treated with DTT (1.2 eq.) for 1 h at RT then linker CCA (2 eq.) for 3 h at RT. The reaction was purified by RP-HPLC and characterised by LC-MS to confirm the correct identity of the cyclized product, Str1-CCA. Str1 = 1351 Da and Str1-CCA = 1601 Da.
Streptavidin was covalently immobilised to a CM5 chip surface (Cytiva, BR100530, lot 10340325) using standard amine coupling techniques at a concentration of 16 µg/ml in 10 mM sodium acetate pH 4.5.
The peptides were serially diluted (4.1 – 9000 nM) in HBS-EP + buffer pH 7.4 and flowed over the chip at 30 µL/min, with 180 s association and 600 s dissociation. Multiple buffer-only injections were made under the same conditions to allow for double reference subtraction of the final sensorgram sets, which were analysed using Biacore 8 K Evaluation Software. Each experiment was repeated three times, which gave consistent results. Representative results are presented in the paper.

T1 sequence (P22629 25-183): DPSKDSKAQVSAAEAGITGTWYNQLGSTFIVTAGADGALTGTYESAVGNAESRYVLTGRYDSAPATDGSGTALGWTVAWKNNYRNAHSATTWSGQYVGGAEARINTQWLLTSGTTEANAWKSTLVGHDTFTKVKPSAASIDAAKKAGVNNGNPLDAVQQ

Molecule	Phage ELISA signal, Linear (streptavidin [1])	Abundance (Total = 96) (streptavidin [2])	further results
O[C@@H](CS)[C@@H](O)CS [DTT, reference compound]	–	–	Phage titre (Ph1 phage particles): 1.30E+11 Cfu/mL
CGGSGGC [negative control phage construct, reference compound]	0.052	–	Phage ELISA signal, Lin (streptavidin [1]): 0.065; Binding to streptavidin in phage ELISA (in words) (streptavidin [1]): No binding
CPFNFFIWNDEC [Str9, phage clone displaying streptavidin-selected peptide]	0.315	2	–
CPFNIASPFYGC [Str6, phage clone displaying streptavidin-selected peptide]	0.254	12	–
CPFNIKNPDDGC [Str2, phage clone displaying streptavidin-selected peptide]	0.111	7	–
CPFNILVPFIDC [Str4, phage clone displaying streptavidin-selected peptide]	0.254	5	–
CPINIFHPPPDC (disulfide 1-12 (inferred)) [Str1, streptavidin-selected peptide; tested as phage clone and as synthetic disulphide-bonded peptide]	0.115	42	SPR signal (in words) (streptavidin [3]): no SPR signal observed
CPINVQYSTGTC [Str7, phage clone displaying streptavidin-selected peptide]	0.032	1	Phage ELISA signal, Lin (streptavidin [1]): 0.106; Binding to streptavidin in phage ELISA (in words) (streptavidin [1]): no binding
CPTNTQYDLTIC	–	4	–
CPYNIAGPPLYC [Str3, phage clone displaying streptavidin-selected peptide]	0.123	13	–
CPYNIINPTFDC [Str5, phage clone displaying streptavidin-selected peptide]	0.096	8	–
CPYNVERPDSHC [Str8, phage clone displaying streptavidin-selected peptide]	0.029	2	–
CWLNHPQAPPEC [reference compound]	1.437	–	–
